# Where a name gives a salt, the structure may show the parent alone. Read-outs that look alike come from different tables or passages of the source.
# Experiments:
# [1] = parameters: method as in Duranton et al.[6]; settings: mean plasma levels in ESRD patients; ref Duranton et al.[6]; cited from earlier work
# OAT3 = target: T1, OAT3 (Homo sapiens, UniProt Q8TCC7); experiment: Fluorescein inhibition assay in ciPTEC-OAT3 flat monolayers
# T1 sequence (Q8TCC7 1-542): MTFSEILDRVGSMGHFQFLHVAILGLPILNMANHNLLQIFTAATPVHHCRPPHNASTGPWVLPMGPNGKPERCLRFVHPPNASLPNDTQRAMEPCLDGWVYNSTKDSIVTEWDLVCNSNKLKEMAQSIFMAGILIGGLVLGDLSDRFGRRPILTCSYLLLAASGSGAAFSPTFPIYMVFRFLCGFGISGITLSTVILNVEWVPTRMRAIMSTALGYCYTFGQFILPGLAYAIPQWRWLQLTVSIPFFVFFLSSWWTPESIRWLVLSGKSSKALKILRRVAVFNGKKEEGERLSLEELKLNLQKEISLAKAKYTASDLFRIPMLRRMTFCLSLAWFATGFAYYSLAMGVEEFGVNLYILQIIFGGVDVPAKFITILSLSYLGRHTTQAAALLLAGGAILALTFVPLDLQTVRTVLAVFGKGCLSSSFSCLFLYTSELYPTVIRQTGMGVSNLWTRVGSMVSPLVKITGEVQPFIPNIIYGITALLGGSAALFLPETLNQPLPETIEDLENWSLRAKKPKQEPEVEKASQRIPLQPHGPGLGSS
# OAT1 [2] = target: T2, OAT1 (Homo sapiens, UniProt Q4U2R8); experiment: Fluorescein inhibition assay in ciPTEC-OAT1 flat monolayers
# T2 sequence (Q4U2R8 1-563): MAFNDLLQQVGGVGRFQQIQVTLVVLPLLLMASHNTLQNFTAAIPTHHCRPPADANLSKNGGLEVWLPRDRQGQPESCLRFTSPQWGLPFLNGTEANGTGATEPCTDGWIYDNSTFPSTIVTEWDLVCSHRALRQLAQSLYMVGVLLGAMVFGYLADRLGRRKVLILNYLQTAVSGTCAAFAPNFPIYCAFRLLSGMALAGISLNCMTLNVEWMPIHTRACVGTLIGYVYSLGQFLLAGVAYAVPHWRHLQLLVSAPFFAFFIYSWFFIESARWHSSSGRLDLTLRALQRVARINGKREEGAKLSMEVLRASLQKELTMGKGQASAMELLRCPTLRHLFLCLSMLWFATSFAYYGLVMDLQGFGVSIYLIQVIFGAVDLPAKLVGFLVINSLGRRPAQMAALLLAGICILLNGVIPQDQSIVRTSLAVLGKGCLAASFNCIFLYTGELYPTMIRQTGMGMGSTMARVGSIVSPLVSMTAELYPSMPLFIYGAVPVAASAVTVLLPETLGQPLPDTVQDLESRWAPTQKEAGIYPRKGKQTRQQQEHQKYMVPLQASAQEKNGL
# BCRP = test system: BCRP; parameters: method as in earlier work; settings: vesicular transport assay; ref 14 (Mutsaers et al.); cited from earlier work
# [3] = test system: parent ciPTEC models lacking OAT1; experiment: MTT cell viability assay in parent ciPTEC lacking OAT1; format: cell-based, human; settings: parent ciPTEC lacking OAT1, in presence of efflux pump inhibitors
# Protocol: After 4 hours of incubation, the intracellular
# Monolayer polarization and transepithelial barrier function
# Next, cells were incubated with
# The mR NA expression level s of
# PCR Master Mix (Applied Biosystems, Branchburg, NJ).
# MRP4 = test system: MRP4; parameters: method as in earlier work; settings: vesicular transport assay; ref 14 (Mutsaers et al.); cited from earlier work
# OAT1 [4] = target: T2, OAT1; experiment: in vitro; settings: pH 7.4, inhibition of indoxyl sulfate uptake
# [5] = test system: bioengineered renal tubules (ciPTEC-OAT1 on HFM); experiment: Transepithelial transport (clearance) of indoxyl sulfate and kynurenic acid in bioengineered renal tubules; format: cell-based; settings: absence of human serum albumin; perfusion 10 min, 100 μM toxin
# OAT1 [6] = target: T2, OAT1; experiment: Uptake of indoxyl sulfate and kynurenic acid by ciPTEC-OAT1 (LC-MS/MS); settings: 10 min, 37°C
# [7] = read-out: ciPTEC-OAT1 IC50 (inhibition of fluorescein uptake), 1 μM fluorescein, 10 min, 37°C, flat monolayers, mean ± S.E.M.
# [8] = read-out: ciPTEC-OAT3 IC50 (inhibition of fluorescein uptake), 1 μM fluorescein, 10 min, 37°C, flat monolayers, mean ± S.E.M.
Compound,Cm in ESRD patients [1] [µM],IC50 (OAT3) [µM],IC50 (OAT1 [2]) [µM],further results
O=C(O)CNC(=O)c1ccccc1 [Hippuric acid],398,22 ± 9,–,–
O=C(O)Cc1c[nH]c2ccccc12 [Indole-3-acetic acid],–,148 ± 60,19 ± 2,–
O=S(=O)(O)Oc1c[nH]c2ccccc12 [Indoxyl sulfate],110,–,–,"inhibition of BCRP (in words) (BCRP): potent inhibitors; TC50 (cell viability, MTT) [3]: 3000 ± 500 µM; inhibition of MRP4 (in words) (MRP4): potent inhibitors"
O=C(O)[C@H]1O[C@@H](Oc2c[nH]c3ccccc23)[C@H](O)[C@@H](O)[C@@H]1O [Indoxyl-β-glucuronide],9,527 ± 218,492 ± 68,–
O=C(O)c1cc(=O)c2ccccc2[nH]1 [Kynurenic acid],–,6 ± 1,6 ± 1,"inhibition at 10 min, 100 μM (OAT1 [4]): 64 ± 13%; transepithelial clearance [5]: 72 ± 20 μl.min^−1.cm^−2; uptake by ciPTEC-OAT1 monolayers (OAT1 [6]; toxin 3 μM): 2.7 ± 0.3 pmol.min^−1.cm^−2; uptake by ciPTEC-OAT1 monolayers (OAT1 [6]; toxin 30 μM): 5.9 ± 0.5 pmol.min^−1.cm^−2"
Nc1ccccc1C(=O)C[C@H](N)C(=O)O [L-Kynurenine],6,219 ± 66,65 ± 8,–
Cc1ccc(O[C@@H]2O[C@H](C(=O)O)[C@@H](O)[C@H](O)[C@H]2O)cc1 [p-Cresylglucuronide],44,–,–,IC50 (OAT1 [2]; [7]): 2650 ± 922 µM; IC50 (OAT3; [8]): 588 ± 81 µM
Cc1ccc(OS(=O)(=O)O)cc1 [p-Cresylsulfate],675,–,–,IC50 (OAT1 [2]; [7]): 79 ± 14 µM; IC50 (OAT3; [8]): 112 ± 19 µM

# Reference: article PMC4886219, “Bioengineered kidney tubules efficiently excrete uremic toxins” (Scientific Reports, 2016)
